Read-outs that look alike come from different tables or passages of the source. Each block holds one compound with its values, some of them ahead of it.
Key:
PKCd [1] = molecular target: PKCd (Mus musculus, UniProt P28867); parameters: effect on H2O2-induced translocation of PKCd to mitochondria: dose or concentration left out as unconfirmed; settings: NIH3T3 cells
Procedure: (§1) Transfections were performed with Superfect (Qiagen).
(§2) The supernatants (S1) were collected.

cytochrome c [2] = assay: Cytochrome c release in U-937 cells, immunoblot of cytoplasmic fractions; format: cell-based, human; settings: for effect on H2O2-induced release of cytochrome c: U-937 cells pretreated with NAC (30 mM) or rottlerin (10 µM); for cytochrome c release: U-937 cells, agent alone
Procedure: (§3) Cells were also treated with 10 μM rottlerin (Calbiochem).
as §1
(§4) The cells were disrupted by Douce homogenization.

c-Abl [3] = assay: c-Abl translocation to mitochondria in MEFs, oxidative stress; format: cell-based, mouse
Procedure: Cells were treated with 1 mM H2O2 (Sigma) and 30 mM N-acetyl-L-cysteine (NAC; Sigma). Transient transfections were performed in the presence of calcium phosphate.
Immunofluorescence microscopy: Cells were plated onto poly D-lysine coated glass coverslips 1 day prior to H2O2 treatment (1 hour) and then fixed with 3.7% formaldehyde/PBS (pH 7.4) for 10 minutes. Cells were washed with PBS, permeabilized with 0.2% Triton X-100 for 10 minutes, washed again and incubated for 30 minutes in complete medium. The coverslips were then incubated with […] of anti-c-Abl (K-12) for 1 hour followed by Texas Red-goat anti-rabbit Ig (H+L) conjugate (Molecular Probes, Eugene, Oreg.). Mitochondria were stained with 100 nM Mitotracker Green FM (Molecular Probes, OR). Nuclei were stained with 4,6-diamino-2-phenylindole (DAPI; 1 mg/ml in PBS). Coverslips were mounted onto slides with 0.1 M Tris (pH 7.0) in 50% glycerol. Cells were visualized by digital confocal immunofluorescence and images were captured with a cooled CCD camera mounted on a Zeiss Axioplan 2 microscope. Images were deconvolved using Slidebook software (Intelligent Imaging Innovations, Inc., Denver, Colo.).
Protein concentration was determined by the Bio-Rad protein estimation kit.
Preparation of cell lysates: Whole cell lysates (WCL) were prepared as described (Kharbanda et al. (1995) Nature 376, 785-788) and analyzed for protein concentration.
Immunoprecipitation and immunoblot analysis. Soluble proteins ([…]) were incubated with anti-c-Abl (K-12; Santa Cruz Biotechnology) for 1 hour and precipitated with protein A-sepharose for 30 minutes. Immunoprecipitates and lysates ([…]) were resolved by SDS-PAGE and analyzed by immunoblotting with anti-c-Abl (24-11; Santa Cruz), anti-HSP60 (Stressgen, Victoria, British Columbia), anti-b-actin (Sigma) anti-PCNA (Calbiochem), anti-PDGF receptor (Oncogene) and anti-PKCd (Santa Cruz).

U-937 cells = assay: Apoptosis by sub-G1 DNA content in U-937 cells; format: cell-based, human
PKCd [4] = molecular target: T1, PKCd (Homo sapiens, UniProt Q05655); assay: PKCd translocation to mitochondria in U-937 cells, immunoblot of fractions; format: cell-based; parameters: subjecting cytoplasmic and mitochondrial fractions to immunoblotting with anti-PKC antibodies; endogenous in cells; host or cells: U-937
Procedure: as §3
Mitochondria were stained with 0.006 ng/slide of Mitotracker Green FM (Molecular Probes). The slides were analyzed using a Zeiss Auxiphot fluorescence microscope coupled to a CCD camera and a power Macintosh 8100. Image analysis was performed using the IPLab Spectrum 3.1 software (Signal Analytics).
as §1, §4, §2
Mitochondria were stained with 0.006 ng/slide of Mitotracker Green FM (Molecular Probes). The slides were analyzed with a Zeiss Auxiphot fluorescence microscope coupled to a CCD camera and a power Macintosh 8100. Image analysis was performed using the IPLab Spectrum 3.1 software (Signal Analytics).

c-Abl [5] = assay: c-Abl immune complex kinase assay, phosphorylation of GST-Crk(120-225), COS7 cells; format: cell-based
Procedure: (§5) Cell culture: COS7 cells and mouse embryonic fibroblasts (MEFs) derived from wild-type and c-Abl^−/− mice were cultured in Dulbecco's modified Eagle's medium containing 10% heat-inactivated fetal calf serum, 2 mM L-glutamine, 100 units/ml penicillin and 100 μg/ml streptomycin. DLD1 cells were grown as described (Polyak et al. (1997) Nature 389, 300-305). Cells were treated with H2O2 (Sigma), 30 mM N-acetyl-L-cysteine (NAC; Sigma) or 10 μM cis-platinum (Sigma).
(§6) Analysis of kinase activity: Cell lysates were prepared in lysis buffer (10 mM Tris-HCl, pH 7.5, 10 mM NaCl, 1 mM DTT, 0.1 mM EDTA, 3 mM MgCl2, 0.5 mM PMSF, 5 μg/ml leupeptin) containing 0.5% Nonidet P-40 and subjected to immunoprecipitation as described (Kharbanda et al. (1997) Nature 386, 732-735) with anti-c-Abl (sc-23; Santa Cruz) or mouse IgG (Santa Cruz). The immunoprecipitates were resuspended in kinase buffer (20 mM HEPES, pH 7.4, 10 mM MgCl2, 10 mM MnCl2) containing 2.5 μCi [g-32P]ATP and GST-Crk(120-225) or GST-Crk(120-212) for 20 minutes at 30° C. Anti-PKCd (sc-937; Santa Cruz) and anti-ERK1 (sc-93; Santa Cruz) immunoprecipitates were analyzed by using histone H1 and myelin basic protein (Upstate Biotecnology Inc.), respectively, as substrates. The reaction products were analyzed by SDS-PAGE and autoradiography.

catalase = assay: Catalase levels in MEFs; format: cell-based, mouse
Source text: As a control, degradation was inhibited when [g-S]ATP was substituted for ATP to prevent ubiquitination. […] Lactacystin, another proteosome inhibitor, was used to assess degradation of catalase in cells.

c-Abl [6] = assay: c-Abl activity in cytoplasts devoid of nuclei; format: cell-based
Procedure: as §6

PKCζ = assay: Cytoplasmic or mitochondrial PKCζ levels in U-937 cells, immunoblot
PKCd [7] = molecular target: T1, PKCd; settings: MCF-7 cells, TPA
Procedure: Cell culture and reagents: Human U-937 myeloid leukemia cells (ATCC, Rockville, Md.) were grown in RPMI 1640 medium supplemented with 10% heat-inactivated fetal bovine serum (FBS), 100 units/ml penicillin, 100 μg/ml streptomycin, and 2 mM L-glutamine. MCF-7, MCF-7/neo, MCF-7/PKCdRD and 293T cells were grown in Dulbecco's modified Eagle's medium (DMEM) containing 10% FBS. […] Cells were also treated with 10 μM rottlerin (Calbiochem).

MCF-7/neo cells = assay: Apoptosis by sub-G1 DNA content in MCF-7/neo cells
PKCγ = PKCγ (Homo sapiens, UniProt P05129); assay: Cytoplasmic or mitochondrial PKCγ levels in U-937 cells, immunoblot
cytochrome c [8] = settings: wild-type MEFs
Procedure: as §5

ATP levels = settings: wild-type and c-Abl+ cells, H2O2
Procedure: Quantitation of ATP: ATP levels were measured using an ATP Determination Kit (Molecular Probes).

[9] = test system: mitochondrial transmembrane potential; assay: Mitochondrial transmembrane potential, Rhodamine 123 staining, MEFs; parameters: effect on H2O2-induced change in Ψ: dose or concentration left out as unconfirmed
c-Abl [10] = assay: c-Abl targeting to mitochondria under ER stress, immunofluorescence and immunoblot; format: cell-based; settings: mitochondrial fraction
Procedure: (§7) Cells were treated with A23187 (Sigma) or Brefeldin A (Sigma).
Digital confocal immunofluorescence microscope: Cells grown on poly-D-lysine coated glass coverslips were fixed (3.7% formaldehyde in PBS, pH 7.4; 10 minutes), permeabilized (0.2% Triton X-100; 10 min), blocked for 30 minutes in media containing serum. After rinsing with PBS, immunostaining was performed by incubating the cells with 50 ng/slide of anti-c-Abl (K-12 rabbit polyclonal; Santa Cruz) and anti-grp-78 (C-20 goat polyclonal; Santa Cruz). For c-Abl and calreticulin staining, cells were incubated first with anti-c-Abl alone for 1 hour followed by blocking for 30 minutes in media containing serum. After washing with PBS, cells were then incubated with anti-calreticulin (rabbit polyclonal; StressGen). Finally, cells were incubated with a 1:250 dilution of CY-3 or Fluorescein (FITC)-conjugated anti-rabbit or anti-goat secondary antibodies (Jackson ImmunoResearch) for 1 hour. Mitochondria were stained with 0.006 ng/slide Mitotracker Green FM (Molecular Probes). Nuclei were stained with 4,6-diamino-2-phenylindole (DAPI; 1 mg/ml in PBS). Coverslips were mounted onto slides with 0.1 M Tris (pH 7.0) in 50% glycerol. Cells were visualized by digital confocal immunofluorescence and images were captured with cooled CCD camera mounted on a Zeiss Axioplan 2 microscope. Images were deconvolved using Slidebook software (Intelligent Imaging Innovations, Inc., Denver, Colo.).
(§8) The supernatant was collected and centrifuged at 10,000×g for 10 minutes. […] Protein concentration was determined by the Bio-Rad protein estimation kit.

c-Abl [11] = assay: c-Abl levels in cytoplasmic and nuclear fractions, ER stress; format: cell-based
Source text: Isolation of cytoplasmic and nuclear fractions: The cytoplasmic and nuclear fractions were isolated as described in Example 1.

c-Abl [12] = assay: Mitochondrial c-Abl kinase activity, GST-Crk(120-225) phosphorylation, ER stress; format: cell-based; settings: anti-c-Abl immunoprecipitates of mitochondrial fraction
Procedure: as §8
Analysis of c-Abl activity: Cell lysates were prepared as described in Example 1 and subjected to immunoprecipitation with anti-c-Abl (K-12; Santa Cruz). The immunoprecipitates were resuspended in kinase buffer (see Example 1) containing […] of [g-32P]ATP and GST-Crk(120-225) or GST-Crk(120-212) for 15 minutes at 30° C. The reaction products were analyzed by SDS-PAGE and autoradiography.

c-Abl [13] = assay: c-Abl levels in the ER fraction, ER stress; format: cell-based
Procedure: as §7
(§9) Isolation of the ER fraction: Cells were washed with PBS, lysed in homogenization buffer (50 mM Tris-HCl, pH 8.0, 1 mM b-mercaptoethanol, 1 mM EDTA, 0.32 M sucrose and 0.1 mM PMSF), and then centrifuged at 5,000×g for 10 minutes. The supernatant was collected and centrifuged at 105,000×g for 1 hour. […] The resulting supernatant was used as the ER fraction.

grp78 = grp78 expression in the ER fraction, ER stress; format: cell-based
Procedure: as §7, §9

MEFs = assay: Apoptosis by sub-G1 DNA in MEFs under ER stress; format: cell-based, mouse; settings: c-Abl−/− cells
Procedure: Apoptosis assays: DNA content was assessed by staining ethanol-fixed cells with propidium iodide and monitoring by FACScan (Becton-Dickinson).

T1 sequence (Q05655 whole entry): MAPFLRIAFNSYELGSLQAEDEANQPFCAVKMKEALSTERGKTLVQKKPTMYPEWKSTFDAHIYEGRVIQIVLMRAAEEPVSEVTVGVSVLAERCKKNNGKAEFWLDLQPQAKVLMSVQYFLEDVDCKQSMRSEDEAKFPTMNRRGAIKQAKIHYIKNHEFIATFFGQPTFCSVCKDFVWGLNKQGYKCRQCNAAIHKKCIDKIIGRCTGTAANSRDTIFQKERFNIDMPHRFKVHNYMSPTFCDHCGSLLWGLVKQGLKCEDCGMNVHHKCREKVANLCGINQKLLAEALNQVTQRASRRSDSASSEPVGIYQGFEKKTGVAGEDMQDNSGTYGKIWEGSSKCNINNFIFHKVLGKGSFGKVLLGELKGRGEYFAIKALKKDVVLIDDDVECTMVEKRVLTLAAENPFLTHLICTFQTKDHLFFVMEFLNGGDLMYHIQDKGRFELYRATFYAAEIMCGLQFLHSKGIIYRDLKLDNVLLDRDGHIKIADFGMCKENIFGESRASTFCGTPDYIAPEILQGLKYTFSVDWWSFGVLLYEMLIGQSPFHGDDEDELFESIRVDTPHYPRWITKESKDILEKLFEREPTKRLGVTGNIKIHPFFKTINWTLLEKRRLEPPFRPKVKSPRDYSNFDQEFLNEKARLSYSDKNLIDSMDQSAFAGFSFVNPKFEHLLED
Sequence of PKCd (Mus musculus, UniProt P28867) (P28867 whole entry): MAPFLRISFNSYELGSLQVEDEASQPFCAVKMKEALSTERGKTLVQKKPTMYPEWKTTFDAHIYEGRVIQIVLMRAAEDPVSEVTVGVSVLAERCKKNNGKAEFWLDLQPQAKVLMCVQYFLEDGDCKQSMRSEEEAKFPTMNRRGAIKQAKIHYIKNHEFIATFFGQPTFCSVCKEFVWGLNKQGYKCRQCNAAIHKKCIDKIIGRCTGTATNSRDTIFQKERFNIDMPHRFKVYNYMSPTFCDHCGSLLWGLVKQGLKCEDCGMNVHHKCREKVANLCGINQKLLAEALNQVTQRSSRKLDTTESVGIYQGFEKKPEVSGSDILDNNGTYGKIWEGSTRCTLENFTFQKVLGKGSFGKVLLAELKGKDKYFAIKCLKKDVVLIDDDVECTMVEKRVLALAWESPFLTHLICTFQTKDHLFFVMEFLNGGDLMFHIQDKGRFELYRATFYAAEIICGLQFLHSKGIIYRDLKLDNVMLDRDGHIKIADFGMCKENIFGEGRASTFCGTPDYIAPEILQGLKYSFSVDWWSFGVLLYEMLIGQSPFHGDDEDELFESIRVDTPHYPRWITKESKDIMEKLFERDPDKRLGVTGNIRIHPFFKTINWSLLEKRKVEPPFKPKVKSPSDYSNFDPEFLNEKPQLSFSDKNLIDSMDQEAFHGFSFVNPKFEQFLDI

Compound: CC(=O)c1c(O)c(C)c(O)c(Cc2c(O)c3c(c(C(=O)/C=C/c4ccccc4)c2O)OC(C)(C)C=C3)c1O [rottlerin]
- effect on H2O2-induced translocation of PKCd to mitochondria (PKCd [1]; rottlerin): inhibits
- effect on H2O2-induced release of cytochrome c (cytochrome c [2]): blocked
- effect on TPA-induced cytochrome c release (cytochrome c [2]; U-937 cells pretreated with rottlerin before TPA): significantly blocks
- cytochrome c release (cytochrome c [2]): detectable release of cytochrome c
- effect on H2O2-induced translocation of c-Abl to mitochondria (c-Abl [3]; MEFs): inhibited
- constitutive levels of mitochondrial c-Abl (c-Abl [3]; MEFs, rottlerin alone): no effect
- apoptosis, sub-G1 DNA content (U-937 cells; rottlerin alone): low level of apoptosis
- effect on apoptotic response to TPA (U-937 cells; rottlerin and TPA): significantly attenuated
- effect on TPA-induced localization of PKCd to mitochondria (PKCd [4]; 10 μM rottlerin): abrogated

- effect on H2O2-induced localization of PKCd to mitochondria (PKCd [4]; 30 mM NAC): inhibits
Compound: CC(=O)N[C@@H](CS)C(=O)O [NAC, N-acetyl-L-cysteine]
- effect on H2O2-induced release of cytochrome c (cytochrome c [2]): blocks
- effect on H2O2-induced translocation of c-Abl to mitochondria (c-Abl [3]; MEFs): inhibited
- effect on H2O2-induced phosphorylation of GST-Crk(120-225) by c-Abl (c-Abl [5]; 30 mM NAC): inhibited

- catalase levels (catalase; c-abl−/−arg−/− cells): little if any effect
- catalase levels (catalase; wild-type MEFs): increase in catalase levels
Compound: CC(=O)N[C@@H](CSC(=O)[C@]1([C@@H](O)C(C)C)NC(=O)[C@H](C)[C@@H]1O)C(=O)O [lactacystin]

Compound: N.N.[Cl][Pt][Cl] [cisplatin, cis-platinum]
- c-Abl activity in cytoplasts (c-Abl [6]): no detectable effect

Compound: CCCCCCCCCCCCCC(=O)O[C@@H]1[C@@H](C)[C@@]2(O)[C@@H](C=C(CO)C[C@]3(O)C(=O)C(C)=C[C@@H]23)[C@H]2C(C)(C)[C@]12OC(C)=O [TPA]
- cytochrome c release (cytochrome c [2]): cytochrome c release
- cytoplasmic or mitochondrial levels of PKCζ (PKCζ; TPA): no detectable effect
- translocation of PKCd to mitochondria (PKCd [4]; 250 nM TPA, 100 nM bryostatin, 0.5 units/ml PLC, 10 μM DOG): increases in mitochondrial PKCd
- percent PKCd translocation to mitochondria (PKCd [4]; 250 nM TPA, scanned immunoblots): approximately 40%
- translocation of PKCd to mitochondria (PKCd [7]): translocates to mitochondria
- apoptosis (MCF-7/neo cells): induction of apoptosis
- cytoplasmic or mitochondrial levels of PKCγ (PKCγ; TPA): no detectable effect

- localization of PKCd to mitochondria (PKCd [1]; H2O2): localization of PKCd to mitochondria
- mitochondrial PKCd (PKCd [4]; 1 mM H2O2): increases in mitochondrial PKCd
- mitochondrial levels of PKCγ (PKCγ; H2O2): little if any effect
Compound: OO [H2O2, hydrogen peroxide]
- cytochrome c in cytoplasmic lysates (cytochrome c [8]): increased levels of cytochrome c
- c-Abl activity in cytoplasts (c-Abl [6]): induction of c-Abl activity
- cytochrome c release (cytochrome c [2]): induces cytochrome c release
- total c-Abl that localizes to mitochondria (c-Abl [3]; MEFs following H2O2, approximately 4% without treatment): approximately 20%
- increase in mitochondrial c-Abl protein, densitometric scanning (c-Abl [3]; MEFs, 0.5 to 1 hour of H2O2 treatment): > 5 fold
- mitochondrial levels of PKCζ (PKCζ; H2O2): little if any effect
- ATP levels (ATP levels): depletion of ATP
- mitochondrial transmembrane potential (Ψ) ([9]; wild-type cells, H2O2): substantially diminished
- stimulation of the Crk kinase activity of anti-c-Abl immunoprecipitates (c-Abl [5]; COS7 cells exposed to H2O2, GST-Crk(120-225) substrate): 4-5 fold
- time of maximal induction of c-Abl activity (c-Abl [5]; H2O2 exposure): 30 to 60 min
- induction of c-Abl activity (c-Abl [5]; exposure to 1 mM H2O2): 5 fold
- apoptosis (MCF-7/neo cells): induction of apoptosis

Compound: C[C@H]1CCC/C=C/[C@@H]2C[C@H](O)C[C@H]2[C@H](O)/C=C/C(=O)O1 [Brefeldin A]
- c-Abl protein in the mitochondrial fraction, immunoblot (c-Abl [10]): increases in c-Abl protein
- c-Abl levels in the cytoplasm or nucleus (c-Abl [11]): no detectable effect
- mitochondrial c-Abl activity (c-Abl [12]): increases in mitochondrial c-Abl activity
- c-Abl levels in the ER fraction (c-Abl [13]): decreases
- expression of grp78 (grp78): increases in grp78
- induction of apoptosis (MEFs): abrogated

Compound: cyclosporin A
- effect on H2O2-induced change in Ψ ([9]; wild-type MEFs pretreated with cyclosporin A): abrogated

Source: US7556935B2 (Dana-Farber Cancer Institute, Inc., priority 2001, dated 2009)
